# Data as given in patent publication US7915263B2, “Aminopyridine derivatives having aurora A selective inhibitory action” (Banyu Pharmaceutical Co., Ltd., priority 2006, dated 2011).
# What was measured:
# [1] = biological target: T1, GST-tagged human Aurora B(AurB)/His-tagged human INCENP complex proteins (Homo sapiens, UniProt Q96GD4); experiment: Aurora B inhibitory activity (Method A, IMAP kit); assay type: biochemical; conditions: 40 μM ATP, 25° C., 45 minutes
# T1 construct: GST; purchased Cama Biosciences, Inc. (so in the source)
# T1 sequence (Q96GD4 whole entry): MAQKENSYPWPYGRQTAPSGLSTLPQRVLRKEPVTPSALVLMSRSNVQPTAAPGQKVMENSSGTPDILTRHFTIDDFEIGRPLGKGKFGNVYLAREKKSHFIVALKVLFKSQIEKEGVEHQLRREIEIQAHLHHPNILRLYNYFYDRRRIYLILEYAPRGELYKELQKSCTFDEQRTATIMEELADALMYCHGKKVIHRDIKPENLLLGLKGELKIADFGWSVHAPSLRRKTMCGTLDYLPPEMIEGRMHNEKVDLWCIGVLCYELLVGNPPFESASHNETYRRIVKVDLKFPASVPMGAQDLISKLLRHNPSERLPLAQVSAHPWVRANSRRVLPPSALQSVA
# T1 sequence (Q9NQS7 803-916 partner limits assumed): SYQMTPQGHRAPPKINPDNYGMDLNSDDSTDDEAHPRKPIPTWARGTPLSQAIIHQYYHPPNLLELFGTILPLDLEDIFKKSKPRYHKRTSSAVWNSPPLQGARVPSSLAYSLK
# Procedure: Using the same, the phosphorylation reaction was conducted in accordance with a partially revised protocol attached to the kit, and then the phosphorylation of the substrate was detected using the IMAP technology.
# For the phosphorylation reaction, 384 well plate was used, and the reaction volume was 10 μl/well. The composition of the reaction buffer (assay buffer) is comprised of 20 mM of HEPES buffer (pH 7.4), 0.01% Tween-20, and 2 mM of dithiothreitol (DTT). Thereto, AurB/INCENP complex protein, 100 nM of the substrate, and 40 μM of ATP, and 1 mM of magnesium salt were added, and then the reaction was conducted at 25° C. for 45 minutes. Thereafter, in order to terminate and detect the reaction, 30 μl of the IMAP (registered trademark) binding reagent (IMAP Progressive Binding Reagent, R7284) that had been diluted (1:400) in the 1× IMAP binding buffer A (IMAP Progressive Binding Buffer A, 5× stock, R7282) was added to each well.
# The compound to be tested was added to the reaction system such that a dilution series of the compound in DMSO was prepared, and then 0.5 μL of this solution was added for the testing to each well. Each control well was provided by adding 0.5 μL of DMSO to the well in place of the DMSO solution containing the compound to be tested.
# [2] = system: Human cervical cancer cells (HeLa S3); experiment: Cell growth inhibitory effect, WST-8 method; assay type: cell-based; conditions: 72 h, HeLa S3, three days incubation, read-out: Cell growth inhibitory effect (HeLaS3) (IC50)
# Procedure: Fetal calf serum (FCS) was purchased from Moregate Biotech, and DMEM medium was purchased from Invitrogen Corp. WST-8 was purchased from Kishida Chemical Co., Ltd.
# (§1) Human cervical cancer cells (HeLa S3) were obtained from the American Type Culture Collection (ATCC).
# Cells were suspended in a DMEM medium containing 10% FCS, and the cell suspension was dispensed to a 96-well plastic plate at a rate of 750 cells/100 microliters per well. The plate was incubated overnight in 5% CO2-95% air at 37° C. A drug was subjected to graded dilution in dimethylsulfoxide and further diluted with a DMEM medium containing 10% FCS. Then, the dilution was dispensed to the plate on which cells had been disseminated, at a rate of 100 microliters per well.
# [3] = biological target: T2, His-tagged human Aurora A (Homo sapiens, UniProt O14965); experiment: Aurora A inhibitory activity (IMAP fluorescence polarization); assay type: biochemical; conditions: 20 μM ATP, 30° C., 120 minutes
# T2 construct: made in house; host or cells: Escherichia coli BL21-CodonPlus(DE3)-RIL
# T2 sequence (O14965 1-403): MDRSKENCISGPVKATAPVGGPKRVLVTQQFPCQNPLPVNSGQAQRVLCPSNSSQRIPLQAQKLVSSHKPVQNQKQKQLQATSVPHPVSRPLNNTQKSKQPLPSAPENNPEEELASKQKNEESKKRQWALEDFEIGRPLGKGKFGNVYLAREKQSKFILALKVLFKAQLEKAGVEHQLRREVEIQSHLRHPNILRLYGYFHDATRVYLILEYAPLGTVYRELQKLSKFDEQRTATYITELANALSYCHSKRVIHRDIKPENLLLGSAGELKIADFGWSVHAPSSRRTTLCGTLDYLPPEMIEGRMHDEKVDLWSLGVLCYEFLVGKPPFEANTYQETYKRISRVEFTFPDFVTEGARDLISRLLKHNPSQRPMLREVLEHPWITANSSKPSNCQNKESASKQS
# From the text: cDNA of N-terminal His-tagged human Aurora A was integrated into an expression vector, which was then highly expressed in Escherichia coli BL21-CodonPlus(DE3)-RIL cells. The Escherichia coli was harvested and lysed, and then the His-tagged human Aurora A protein was applied onto a nickel chelate column and eluted from the column with imidazole. The active fractions were desalted with a desalting column to give a purified enzyme.
# Concretely, the phosphorylation reaction and the detection were carried out as follows:
# The phosphorylation reaction was conducted using 384 well plate, and the reaction volume was 10 μl/well. The reaction buffer is comprised of 50 mM Tris-chloride buffer (pH 7.4), 15 mM magnesium acetate, and 0.2 mM ethylenediamine-N,N,N′,N′-tetraacetic acid (EDTA). […]
# Thereafter, in order to terminate and detect the reaction, 30 μl of the IMAP (registered trademark) binding reagent (IMAP Progressive Binding Reagent, R7284) that had been diluted (1:400) in the 1× IMAP binding buffer A (IMAP Progressive Binding Buffer A, 5× stock, R7282) was added to each well. The solution stood still for 60 minutes in the dark, and then fluorescence polarization was measured using a high-end microplate reader (excitation wavelength: 485 nm; emission wavelength: 520 nm). […]
# [4] = system: Human cervical cancer cells (HeLa S3); experiment: Effect by combined use of drugs in cells (docetaxel), WST-8 method; assay type: cell-based
# Procedure: Fetal calf serum (FCS) was purchased from Moregate Biotech, DMEM medium from Invitrogen Corp., docetaxel (tradename: Taxere) from Sigma-Aldrich, Inc., and WST-8 from Kishida Chemical Co., Ltd.
# as §1
# Cells were suspended in a DMEM medium containing 10% FCS, and the cell suspension was dispensed to two 96-well plastic plates at a rate of 750 cells/100 microliters per well. The plates were incubated overnight in 5% CO2-95% air at 37° C. A drug was subjected to graded dilution in dimethylsulfoxide and further diluted with DMSO or with a DMEM medium containing 10% FCS and also containing 0.6 nM docetaxel. Then, the dilutions were each dispensed to one of the plates on which cells had been disseminated, at a rate of 100 microliters per well. The final concentration of docetaxel at this stage was 0.3 nM. Also, the concentrations in the case of sole administration of the compound according to the invention were 0.003, 0.01, 0.03, 0.1, 0.3, 1, 3 and 10 μM. The plates were incubated for further three days in 5% CO2-95% air at 37° C. Cell growth after incubation was measured by the WST-8 method (H. Tominaga, et al., Anal. Commun., 36, 47-50 (1999)). Here, the WST-8 method refers to a method in which 20 microliters of a WST-8 reagent solution is added to each well, incubation is conducted at 37° C. for 60 minutes, the plate is stirred, and the amount of formazan produced is measured by a colorimetric method to determine the inhibitory rate of the drug. The growth inhibitory effects of docetaxel and of the compound according to the invention were determined, with the value obtained in sole treatment of DMSO being defined as 0%.
IC50 [1],IC50 [2],IC50 [3],Compound,"inhibition at 0.1 µM ([4]; Homo sapiens, HeLa S3, compound 0.1 μM alone, read-out: Cell growth inhibitory effect by sole administration of the compound of Example (%))","inhibition at 0.3 µM ([4]; Homo sapiens, HeLa S3, compound 0.3 μM alone, read-out: Cell growth inhibitory effect by sole administration of the compound of Example (%))",Cell growth inhibitory effect by combined administration of docetaxel and the compound of Example (%) ([4]; compound 0.1 μM + docetaxel 0.3 nM),Cell growth inhibitory effect by combined administration of docetaxel and the compound of Example (%) ([4]; compound 0.3 μM + docetaxel 0.3 nM)
670 nM,670 nM,0.19 nM,"O=c1[nH]nc([C@]2(Cc3cncc(Nc4cc[nH]n4)n3)CC[C@@H](Oc3cccc(Cl)c3F)CC2)o1 [Example 29, 5-(trans-4-(3-chloro-2-fluorophenoxy)-1-((6-(1H-pyrazol-3-ylamino)pyrazin-2-yl)methyl)cyclohexyl)-1,3,4-oxadiazol-2(3H)-one]",11.3%,39.9%,79.0%,92.9%
220 nM,–,2.4 nM,"Fc1c(O[C@H]2CC[C@](Cc3cccc(Nc4cc[nH]n4)n3)(c3nncs3)CC2)cccc1C(F)(F)F [Example 27, 6-((trans-4-(2-fluoro-3-(trifluoromethyl)phenoxy)-1-(1,3,4-thiadiazol-2-yl)cyclohexyl)methyl)-N-1H-pyrazol-3-ylpyridin-2-amine]",–,–,–,–
